Inconclusive results and toxic doses are left out. Bridge positions count the residues as written; N and C are the ends. Square brackets hold non-standard residues; d marks the D form. Peptide text beside a SMILES is read from it. I, II: the chains in the order shown. * marks the point of attachment. Quinoxaline2carbonyl = O=C(c1cnc2ccccc2n1)*; NMeV = CN[CH](C(=O)O)C(C)C; NMeC = CN[CH](CS)C(=O)O
Tested on: P388 leukemia ip, CD2F1 mice, survival T/C
Assay: NCI In Vivo Anticancer Drug Screen. Data for tumor model P388 Leukemia (intraperitoneal) in CD2F1 (CDF1) mice
Conditions: endpoint: median survival time, higher = longer survival
Method in brief: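 Mice carrying the transplanted tumor received test compound or vehicle. Survival was recorded in each group, and the value is the treated-group measurement divided by that of the vehicle-treated control group.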

[1] = dose: 60.0 mg/kg/injection, schedule: Q01DX005 (ip), vehicle: saline with Tween-80
[2] = dose: 240.0 mg/kg/injection, schedule: Q01DX005 (ip), vehicle: saline with Tween-80
[3] = dose: 50.0 mg/kg/injection, schedule: Q01DX009 (ip), vehicle: saline with Tween-80
[4] = dose: 100.0 mg/kg/injection, schedule: Q01DX009 (ip), vehicle: saline with Tween-80
[5] = dose: 200.0 mg/kg/injection, schedule: Q01DX009 (ip), vehicle: saline with Tween-80

Structure (SMILES): [Cl][Sn]([CH2][Sn]([Cl])([c]1ccccc1)[c]1ccccc1)([c]1ccccc1)[c]1ccccc1
- T/C (dose: 0.39 mg/kg/injection, schedule: Q01DX005 (ip), vehicle: Klucel (hydroxypropylcellulose) (HPC)): 103 % of control
- T/C (dose: 0.79 mg/kg/injection, schedule: Q01DX005 (ip), vehicle: Klucel (hydroxypropylcellulose) (HPC)): 104 % of control
- T/C (dose: 1.56 mg/kg/injection, schedule: Q01DX005 (ip), vehicle: Klucel (hydroxypropylcellulose) (HPC)): 106 % of control
- T/C (dose: 3.12 mg/kg/injection, schedule: Q01DX005 (ip), vehicle: Klucel (hydroxypropylcellulose) (HPC)): 97 % of control
- T/C (dose: 12.5 mg/kg/injection, schedule: Q01DX005 (ip), vehicle: Klucel (hydroxypropylcellulose) (HPC)): 116 % of control

Structure (SMILES): N#CC(Br)(Br)C#N
- T/C (dose: 3.13 mg/kg/injection, schedule: Q01DX009 (ip), vehicle: Klucel (hydroxypropylcellulose) (HPC)): 117 % of control
- T/C (dose: 6.25 mg/kg/injection, schedule: Q01DX009 (ip), vehicle: Klucel (hydroxypropylcellulose) (HPC)): 114 % of control

Structure (SMILES): O=C(C[n+]1ccccc1Br)c1cccc([N+](=O)[O-])c1
- T/C (dose: 6.25 mg/kg/injection, schedule: Q01DX009 (ip), vehicle: saline): 103 % of control
- T/C (dose: 12.5 mg/kg/injection, schedule: Q01DX009 (ip), vehicle: saline): 107 % of control
- T/C (dose: 25.0 mg/kg/injection, schedule: Q01DX009 (ip), vehicle: saline): 99 % of control
- T/C (dose: 50.0 mg/kg/injection, schedule: Q01DX009 (ip), vehicle: saline): 103 % of control

Structure (SMILES): CS/N=C(\c1ccccc1)N(C)C
- T/C (dose: 7.5 mg/kg/injection, schedule: Q01DX005 (ip), vehicle: Klucel (hydroxypropylcellulose) (HPC)): 97 % of control
- T/C (dose: 15.0 mg/kg/injection, schedule: Q01DX005 (ip), vehicle: Klucel (hydroxypropylcellulose) (HPC)): 100 % of control

Structure (SMILES): CC1c2ccccc2NC(=O)N1N1CCOCC1 (stereo unspecified)
- T/C (dose: 50.0 mg/kg/injection, schedule: Q01DX005 (ip), vehicle: Klucel (hydroxypropylcellulose) (HPC)): 96 % of control
- T/C (dose: 100.0 mg/kg/injection, schedule: Q01DX005 (ip), vehicle: Klucel (hydroxypropylcellulose) (HPC)): 93 % of control
- T/C (dose: 200.0 mg/kg/injection, schedule: Q01DX005 (ip), vehicle: Klucel (hydroxypropylcellulose) (HPC)): 97 % of control

Structure (SMILES): O=c1oc2ccc3ccccc3c2cc1-c1c[nH]c2ccccc12
- T/C [1]: 98 % of control
- T/C (dose: 120.0 mg/kg/injection, schedule: Q01DX005 (ip), vehicle: saline with Tween-80): 95 % of control
- T/C [2]: 98 % of control

Structure (SMILES): CN(CCS(=O)(=O)O)/N=C/c1ccc2c(c1)OCO2
- T/C (dose: 100.0 mg/kg/injection, schedule: Q04DX003 (ip), vehicle: Klucel (hydroxypropylcellulose) (HPC)): 103 % of control
- T/C (dose: 200.0 mg/kg/injection, schedule: Q04DX003 (ip), vehicle: Klucel (hydroxypropylcellulose) (HPC)): 100 % of control
- T/C (dose: 400.0 mg/kg/injection, schedule: Q04DX003 (ip), vehicle: Klucel (hydroxypropylcellulose) (HPC)): 100 % of control

Structure (SMILES): CNC(=S)N/N=C(C)\C=N/Nc1cccc(Cl)c1
- T/C (dose: 100.0 mg/kg/injection, schedule: Q04DX003 (ip), vehicle: saline): 92 % of control
- T/C (dose: 200.0 mg/kg/injection, schedule: Q04DX003 (ip), vehicle: saline): 93 % of control
- T/C (dose: 400.0 mg/kg/injection, schedule: Q04DX003 (ip), vehicle: saline): 100 % of control

Structure (SMILES): CC1NC(=O)C(NC(=O)c2cnc3ccccc3n2)COC(=O)C(C(C)C)N(C)C(=O)C2CSSCC(C(=O)N(C)C(C(C)C)C(=O)OCC(NC(=O)c3cnc4ccccc4n3)C(=O)NC(C)C(=O)N2C)N(C)C1=O (stereo unspecified) (I: Quinoxaline2carbonyl-SA[NMeC][NMeV] / II: Quinoxaline2carbonyl-SA[NMeC][NMeV]; ester I:1-II:C, I:C-II:1; disulfide I:3-II:3; configuration not given here)
- T/C (dose: 25.0 micrograms/kg/injection, schedule: Q01DX009 (ip), vehicle: water): 150 % of control
- T/C (dose: 50.0 micrograms/kg/injection, schedule: Q01DX009 (ip), vehicle: water): 153 % of control
- T/C (dose: 100.0 micrograms/kg/injection, schedule: Q01DX009 (ip), vehicle: water): 185 % of control

Structure (SMILES): O=C1CCCCCCC1C1SCCS1 (stereo unspecified)
- T/C [3]: 102 % of control
- T/C [4]: 109 % of control
- T/C [5]: 114 % of control

Structure (SMILES): CCOC(=O)c1ccc(N(CCNc2cnc(NC(C)=O)[nH]c2=O)C(C)=O)cc1
- T/C (dose: 25.0 mg/kg/injection, schedule: Q01DX009 (ip), vehicle: saline with Tween-80): 92 % of control
- T/C [3]: 88 % of control
- T/C [4]: 92 % of control
- T/C [5]: 89 % of control

Structure (SMILES): CC(O)C(=O)NC1CCCCC1 (stereo unspecified)
- T/C (dose: 50.0 mg/kg/injection, schedule: Q01DX005 (ip), vehicle: saline): 98 % of control
- T/C (dose: 100.0 mg/kg/injection, schedule: Q01DX005 (ip), vehicle: saline): 88 % of control
- T/C (dose: 200.0 mg/kg/injection, schedule: Q01DX005 (ip), vehicle: saline): 89 % of control

Structure (SMILES): O=c1c(Cl)c2cc3c(cc2c2ccccc12)nc1ccccc1n3C1CCCCC1
- T/C [3]: 88 % of control
- T/C [4]: 94 % of control
- T/C [5]: 98 % of control

Structure (SMILES): Cc1ccc(C2(c3ccccc3)OC3OC=CC32)cc1 (stereo unspecified)
- T/C (dose: 25.0 mg/kg/injection, schedule: Q01DX005 (ip), vehicle: saline with Tween-80): 97 % of control
- T/C (dose: 50.0 mg/kg/injection, schedule: Q01DX005 (ip), vehicle: saline with Tween-80): 101 % of control
- T/C [1]: 96 % of control
- T/C (dose: 100.0 mg/kg/injection, schedule: Q01DX005 (ip), vehicle: saline with Tween-80): 100 % of control
- T/C [2]: 96 % of control

Source: PubChem BioAssay AID330 (DTP/NCI, 2004)
